{"source": "patent US9963708B2", "about": "“Recombinant vector for foreign gene expression without biological circuit interference of host cell and uses thereof” (INDUSTRY FOUNDATION OF CHONNAM NATIONAL UNIVERSITY, priority 2014, dated 2018)", "system": "cGMP receptor protein", "test": "Inducible GFP expression with cGMP added directly as inducing agent, without guanylyl cyclase", "format": "cell-based, Rhodospirillum centenum", "conditions": "cGMP 500 μM in 0.1% DMSO, 6 hours; pTrc99a-P-CRP + pPRO (0896-GFPuv)3", "source_text": "According to an inducible expression system, the target gene product is generally expressed in a large amount when there are internal/external inducing agents (chemicals, heat, oxygen, osmotic pressure, or the like) as a signal, and it is widely used in various fields. The most commonly used inducible system is a system in which IPTG is used as an inducing agent. However, being a chemically synthesized inducing agent, it is toxic to cells and, by producing an excess amount of proteins within a short time, a metabolic burden is stressful to the host, and thus it may work as a growth-inhibiting factor. […] To do so, guanylyl cyclase which converts GTP to cGMP molecule was removed, and cGMP was added as an inducing agent to a medium and the level of gene expression was determined. […]\npTrc99a-Cyc-P-CRP plasmid was treated with restriction enzymes BamHI and HindIII to remove the polynucleotide encoding the guanylyl cyclase and according to treatment with a Klenow fragment, self-ligation was induced to complete pTrc99a-P-CRP construct. […] After inoculation to have 1% concentration of the original culture (15 ml), when the absorbance (OD600) of the culture reaches 0.5, cGMP dissolved in 0.1% DMSO was added to 500 μM and expression of the green fluorescent protein was induced for 6 hours. […]", "data": [{"smiles": "Nc1nc2c(ncn2[C@@H]2O[C@@H]3COP(=O)(O)O[C@H]3[C@H]2O)c(=O)[nH]1", "note": "[cGMP, cyclic guanosine monophosphate]", "values": [{"measurement": "expression of the green fluorescent protein induced by cGMP", "value": "there was indeed expression of the green fluorescent protein"}]}]}
